Our source for the POD vs vehicle values is the supplement of paper PMC11368000.

One assay has as its system 1118 (donor line of iPSC-derived cardiomyocytes). As to the kind of experiment: POD (EC10) for decrease in total cell number (cytotoxicity) vs vehicle; higher = less potent (higher point of departure). Conditions: exposure time: 90 min. How it is done:
(§1)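 Human iPSC-derived cardiomyocytes from 16 donors were exposed for 90 min at 37 °C to each PFAS at 0.1, 1, 10 and 100 µM in 0.5% DMSO, 384-well plates. Kinetic Ca2+ flux (FLIPR) and Hoechst nuclei counts were normalised to vehicle wells and fitted with a hierarchical Bayesian Hill model to give donor-specific PODs: EC05 for beat-rate increase or decrease and for decay-to-rise ratio increase (QT proxy), EC95 for peak-frequency loss (asystole), EC10 for total cell number loss. 0.03 µM is the lower bound.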
`OCC(F)(F)C(F)(F)C(F)(F)CO` [Hexafluoroamylene_glycol] had a POD vs vehicle greater than 100 µM.

In turn, `NC(=O)C(F)(F)C(F)(F)C(F)(F)C(F)(F)F` [Nonafluoropentanamide] displayed a POD vs vehicle greater than 100 µM.

`O=C(O)C(F)(F)OC(F)(F)C(F)(F)OC(F)(F)F` [Perfluoro-3,6-dioxaheptanoic_acid] gave a POD vs vehicle greater than 100 µM.

In turn, `O=C(O)C(F)(F)OC(F)(F)C(F)(F)OC(F)(F)C(=O)O` [Perfluoro-3,6-dioxaoctane-1,8-dioic_acid] gave a POD vs vehicle greater than 100 µM.

`O=C(O)C(F)(F)C(F)(F)C(F)(F)OC(F)(C(F)(F)F)C(F)(F)F` [Perfluoro-4-isopropoxybutanoic_acid]: the POD vs vehicle is greater than 100 µM.

In turn, `O=S(=O)(O)C(F)(F)C(F)(F)C(F)(F)C(F)(F)F` [Perfluorobutanesulfonic_acid] gave a POD vs vehicle greater than 100 µM.

For the compound `O=C(O)C(F)(F)C(F)(F)C(F)(F)C(F)(F)C(F)(F)C(F)(F)C(F)(F)C(F)(F)F` [Perfluorononanoic_acid], the POD vs vehicle is greater than 100 µM.

Take `O=S(=O)([O-])C(F)(F)C(F)(F)C(F)(F)C(F)(F)F.[K+]` [Potassium_perfluorobutanesulfonate]: the POD vs vehicle was greater than 100 µM.

A further assay relates to 1518 (donor line of iPSC-derived cardiomyocytes). The assay is described as above. Conditions: exposure time: 90 min. As to the method:
as §1
Turning to `NC(=O)C(F)(F)C(F)(F)C(F)(F)C(F)F`, the POD vs vehicle is greater than 100 µM.

In turn, `OCC(O)CC(F)(F)C(F)(F)C(F)(F)C(F)(F)C(F)(F)C(F)(F)C(F)(F)C(F)(F)F` (stereo unspecified) [1-(Perfluorofluorooctyl)propane-2,3-diol] registered a POD vs vehicle greater than 100 µM.

`CC(O)C(F)(F)C(F)(F)F` (stereo unspecified) [1-Pentafluoroethylethanol] yielded a POD vs vehicle greater than 100 µM.

Consider `O=C(O)C(F)(F)C(F)(F)C(F)F` [2,2,3,3,4,4-Hexafluorobutanoic_acid], for which the POD vs vehicle is greater than 100 µM.

Compound `NC(O)(C(F)(F)F)C(F)(F)F` [2-Aminohexafluoropropan-2-ol] gave a POD vs vehicle greater than 100 µM.

Regarding `O=C(O)CCC(F)(F)C(F)(F)C(F)(F)C(F)(F)C(F)(F)F` [2H,2H,3H,3H-Perfluorooctanoic_acid], the POD vs vehicle was greater than 100 µM.

The compound `O=C(O)C=C(C(F)(F)F)C(F)(F)F` [3,3-Bis(trifluoromethyl)-2-propenoic_acid] came in with a POD vs vehicle greater than 100 µM.

`O=C(O)C=CC(F)(C(F)(F)F)C(F)(F)F` [3-(Perfluoroisopropyl)-2-propenoic_acid]: the POD vs vehicle was greater than 100 µM.

`O=C(O)CCC(F)(F)C(F)(F)C(F)(F)F` [3:3 Fluorotelomer carboxylic acid]: the POD vs vehicle is greater than 100 µM.

Consider `O=C(CC(=O)C(F)(F)C(F)(F)F)C(F)(F)F` [3H,3H-Perfluoro-2,4-hexanedione], for which the POD vs vehicle is greater than 100 µM.

Regarding `O=S(=O)(O)CCC(F)(F)C(F)(F)C(F)(F)C(F)(F)F` [4:2 Fluorotelomer sulfonic acid], the POD vs vehicle is greater than 100 µM.

Turning to `OCC(F)(F)C(F)(F)C(F)(F)F` [Heptafluorobutanol], the POD vs vehicle was greater than 100 µM.

Take `OCC(F)(F)C(F)(F)C(F)(F)CO` [Hexafluoroamylene_glycol]: the POD vs vehicle was greater than 100 µM.

As to `NC(=O)C(F)(F)C(F)(F)C(F)(F)C(F)(F)F` [Nonafluoropentanamide], the POD vs vehicle was greater than 100 µM.

Take `O=C(O)C(F)(F)OC(F)(F)C(F)(F)OC(F)(F)F` [Perfluoro-3,6-dioxaheptanoic_acid]: the POD vs vehicle was greater than 100 µM.

`O=C(O)C(F)(F)OC(F)(F)C(F)(F)OC(F)(F)C(=O)O` [Perfluoro-3,6-dioxaoctane-1,8-dioic_acid]: the POD vs vehicle was greater than 100 µM.

`O=C(O)C(F)(F)C(F)(F)C(F)(F)OC(F)(C(F)(F)F)C(F)(F)F` [Perfluoro-4-isopropoxybutanoic_acid] had a POD vs vehicle greater than 100 µM.

`O=S(=O)(O)C(F)(F)C(F)(F)C(F)(F)C(F)(F)F` [Perfluorobutanesulfonic_acid] came in with a POD vs vehicle greater than 100 µM.

The compound `O=C(O)C(F)(F)C(F)(F)C(F)(F)C(F)(F)C(F)(F)C(F)(F)C(F)(F)C(F)(F)F` [Perfluorononanoic_acid] displayed a POD vs vehicle greater than 100 µM.

`O=S(=O)([O-])C(F)(F)C(F)(F)C(F)(F)C(F)(F)F.[K+]` [Potassium_perfluorobutanesulfonate] came in with a POD vs vehicle greater than 100 µM.

For the next assay, the system named is 1083 (donor line of iPSC-derived cardiomyocytes). Described as above. Particulars: exposure time: 90 min. As to the method:
as §1
Turning to `NC(=O)C(F)(F)C(F)(F)C(F)(F)C(F)F`, the POD vs vehicle was greater than 100 µM.

As to `OCC(O)CC(F)(F)C(F)(F)C(F)(F)C(F)(F)C(F)(F)C(F)(F)C(F)(F)C(F)(F)F` (stereo unspecified) [1-(Perfluorofluorooctyl)propane-2,3-diol], the POD vs vehicle was greater than 100 µM.

Compound `CC(O)C(F)(F)C(F)(F)F` (stereo unspecified) [1-Pentafluoroethylethanol] registered a POD vs vehicle greater than 100 µM.

As to `O=C(O)C(F)(F)C(F)(F)C(F)F` [2,2,3,3,4,4-Hexafluorobutanoic_acid], the POD vs vehicle is greater than 100 µM.

In turn, `NC(O)(C(F)(F)F)C(F)(F)F` [2-Aminohexafluoropropan-2-ol] yielded a POD vs vehicle greater than 100 µM.

`O=C(O)CCC(F)(F)C(F)(F)C(F)(F)C(F)(F)C(F)(F)F` [2H,2H,3H,3H-Perfluorooctanoic_acid] showed a POD vs vehicle greater than 100 µM.

With `O=C(O)C=C(C(F)(F)F)C(F)(F)F` [3,3-Bis(trifluoromethyl)-2-propenoic_acid], the POD vs vehicle is greater than 100 µM.

`O=C(O)C=CC(F)(C(F)(F)F)C(F)(F)F` [3-(Perfluoroisopropyl)-2-propenoic_acid]: the POD vs vehicle is greater than 100 µM.

As to `O=C(O)CCC(F)(F)C(F)(F)C(F)(F)F` [3:3 Fluorotelomer carboxylic acid], the POD vs vehicle is greater than 100 µM.

Turning to `O=C(CC(=O)C(F)(F)C(F)(F)F)C(F)(F)F` [3H,3H-Perfluoro-2,4-hexanedione], the POD vs vehicle is greater than 100 µM.

For `O=S(=O)(O)CCC(F)(F)C(F)(F)C(F)(F)C(F)(F)F` [4:2 Fluorotelomer sulfonic acid], the POD vs vehicle was greater than 100 µM.

On to `OCC(F)(F)C(F)(F)C(F)(F)F` [Heptafluorobutanol], for which the POD vs vehicle was greater than 100 µM.

`OCC(F)(F)C(F)(F)C(F)(F)CO` [Hexafluoroamylene_glycol]: the POD vs vehicle is greater than 100 µM.

In turn, `NC(=O)C(F)(F)C(F)(F)C(F)(F)C(F)(F)F` [Nonafluoropentanamide] displayed a POD vs vehicle greater than 100 µM.

Take `O=C(O)C(F)(F)OC(F)(F)C(F)(F)OC(F)(F)F` [Perfluoro-3,6-dioxaheptanoic_acid]: the POD vs vehicle is greater than 100 µM.

`O=C(O)C(F)(F)OC(F)(F)C(F)(F)OC(F)(F)C(=O)O` [Perfluoro-3,6-dioxaoctane-1,8-dioic_acid]: the POD vs vehicle was greater than 100 µM.

`O=C(O)C(F)(F)C(F)(F)C(F)(F)OC(F)(C(F)(F)F)C(F)(F)F` [Perfluoro-4-isopropoxybutanoic_acid] had a POD vs vehicle greater than 100 µM.

Compound `O=S(=O)(O)C(F)(F)C(F)(F)C(F)(F)C(F)(F)F` [Perfluorobutanesulfonic_acid] had a POD vs vehicle greater than 100 µM.
